The term refractive index denotes the speed of light in vacuum divided by its phase velocity in the sample. The term mass density denotes the mass of a sample divided by its volume. What is called vapor or sublimation pressure is the pressure of vapour in equilibrium with the condensed phase.

The values below come from the NIST ThermoML archive (doi:10.1016/j.jct.2004.11.015).

Data set [1] is described as follows: refractive index (Na D-line) (dimensionless). As to conditions: 101.33 kPa, Liquid, Abbe refractometer.
For data set [2] the following is noted: Liquid; for mass density: 101.33 kPa.

Numbers after ± are expanded uncertainties.

`Cc1ccccn1` [2-methylpyridine]: in data set [1] (298.15 K), the refractive index turned out to be 1.4984 ± 0.0007. Moreover, the mass density in data set [2] (298.15 K) is on record as 939.8 ± 1.5 kg/m3. In addition, in data set [2] (398.05 K), the “vapor or sublimation pressure” value turned out to be 94.7 ± 9.6 kPa.
Consider `CC(=O)c1ccccc1` [acetophenone], for which the refractive index in data set [1] (293.15 K) is reported as 1.5342 ± 0.0007. Further, in data set [2] (293.15 K), the mass density came to 1028.1 ± 1.3 kg/m3. Moreover, the “vapor or sublimation pressure” value in data set [2] (472.25 K) is 94.7 ± 9.6 kPa.
Take `CCCCCO` [pentan-1-ol]: in data set [1] (298.15 K), the refractive index stood at 1.4085 ± 0.0007. Further, the mass density in data set [2] (298.15 K) came out at 815 ± 1 kg/m3. Besides, in data set [2] (400.15 K), the “vapor or sublimation pressure” value was found to be 94.7 ± 9.6 kPa.
In the case of `C=CC#N` [acrylonitrile], the refractive index in data set [1] (298.15 K) is 1.3888 ± 0.0007. For the same molecule, in data set [2] (298.15 K), the mass density was found to be 800.4 ± 1.3 kg/m3. In addition, in data set [2] (348.85 K), the “vapor or sublimation pressure” value worked out at 94.7 ± 9.6 kPa.
Take `CCc1ccccc1` [ethylbenzene]: the refractive index in data set [1] (298.15 K) amounted to 1.4932 ± 0.0007. The mass density in data set [2] (298.15 K) turned out to be 862.5 ± 1.1 kg/m3. Also, the “vapor or sublimation pressure” value in data set [2] (407.05 K) came to 94.7 ± 9.6 kPa.
Consider `CC(=O)CC(C)C` [4-methylpentan-2-one], for which the refractive index in data set [1] (298.15 K) came to 1.3936 ± 0.0007. In addition, the mass density in data set [2] (298.15 K) was 796.3 ± 1.2 kg/m3. Further, in data set [2] (387.15 K), the “vapor or sublimation pressure” value turned out to be 94.7 ± 9.6 kPa.
With `ClCC1CO1` (centres undefined) [1-chloro-2,3-epoxypropane], the refractive index in data set [1] (298.15 K) is 1.4358 ± 0.0007. For the same molecule, the mass density in data set [2] (298.15 K) is 1174.6 ± 2 kg/m3. Also, in data set [2] (389.15 K), the “vapor or sublimation pressure” value is listed as 94.7 ± 9.6 kPa.
Take `CC(=O)N(C)C` [N,N-dimethylethanamide]: in data set [1] (298.15 K), the refractive index is on record as 1.4356 ± 0.0007. The mass density in data set [2] (298.15 K) amounted to 936.3 ± 1.5 kg/m3. Also, the “vapor or sublimation pressure” value in data set [2] (415.35 K) is 94.7 ± 9.6 kPa.
